# Earlier results in patent publication US20080171083A1, “Pharmaceutical Compositions Comprising an Amphiphilic Starch” (VECTURE LIMITED, priority 2004, published 2008).
# Counter-ions that a name gives are not always drawn.
# Conditions: class-1 high solubility, class-2 highly permeable, low solubility, class-3 low permeability, class-4 low solubility
row,Compound,BCS class (solubility / permeability)
1,COc1ccccc1OCCNCC(O)COc1cccc2[nH]c3ccccc3c12 (stereo not shown) [Carvedilol],class-4
2,NCC1(CC(=O)O)CCCCC1 [Gabapentin],class-3
3,COc1ccc2c(c1)c(CC(=O)O)c(C)n2C(=O)c1ccc(Cl)cc1 [Indomethacin],class-2
4,CC(C)NCC(O)COc1cccc2ccccc12 (stereo not shown) [propranolol hydrochloride],class-1
